Patent US6218438A, “Copolymer compositions for treating viral infections” (Supratek Pharma, Inc., priority 1999, dated 2001)

What was measured:
[1] = molecular target: T1, HIV-1 reverse transcriptase (p51/p66 RT), DDDP activity (Human immunodeficiency virus type 1 group M subtype B, UniProt P03366); assay: Inhibition of DNA dependent DNA polymerase activity of RT (RT DDDP); format: biochemical
T1 construct: 10 ng of p51/p66 heterodimeric RT per assay were used
Procedure: (§1) BBNH and Fe(III)-BBNH complex at various concentrations were examined for the ability to inhibit RNA dependent and DNA dependent DNA polymerase activities as well as RNAse H activity of HIV-1 reverse transcriptase (RT RDDP, RT DDDP, and RT RNAse H, respectively). To analyze RT RDDP and RT DDDP the following reaction mixture (100 μl total volume) was used: 50 mM Tris-HCl (pH 7.8), 60 mM KCl, 10 mM MgCl2, 10 ng of p51/p66 RT, 0.1-0.5 units of template/primer, and 0.5-25 μM [^3 H]dNTP. Aliquots of the test compounds dissolved in DMSO were added to the reaction mixtures, incubated for 10-20 min. at 37° C. and than quenched with 500 μl of cold 20 mM sodium pyrophosphate in 10% dichloroacetic acid. After 10 min. on ice, the samples were filtered on Whatman 934-AH glass fiber filters and washed with 10% dichloroacetic acid and ethanol, and the radioactivity was determined by liquid scintillation analysis. To analyze RT RNAse H the following reaction mixture (50 μl total volume) was used: 5OmM Tris-HCl (pH 8.0), 60 mM KCl, 8 mM MgCl2, and variable amounts of ([^3 H]rG)-poly(dC). Generally, 10 ng of p51/p66 heterodimeric RT per assay were used. Aliquots of the test compounds dissolved in DMSO were added to the reaction mixtures, incubated for 20 min. at 37° C. and than quenched by placing the tubes on ice followed by the addition of 100 μl of cold 7% perchloric acid. After 10 min. on ice, the samples were centrifuged at 12,000 g for 15 min. 100 μl of the supernatants were carefully removed, and the radioactivity was determined by liquid scintillation analysis.

[2] = molecular target: T2, HIV-1 reverse transcriptase (p51/p66 RT), RNAse H activity (Human immunodeficiency virus type 1 group M subtype B, UniProt P03366); assay: Inhibition of RNAse H activity of RT; format: biochemical
T2 construct: 10 ng of p51/p66 heterodimeric RT per assay were used
Procedure: as §1

[3] = molecular target: HIV IN (integrase) (Human immunodeficiency virus type 1 group M subtype B, UniProt P03366); assay: Inhibition of DNA-binding activity of HIV integrase; format: biochemical; conditions: in vitro
[4] = Cytotoxic activity against uninfected MT2 cells (XTT assay); format: cell-based, human; conditions: human, 4 days at 37° C., in DMSO
Procedure: BBNH and Fe(III)-BBNH complex at various concentrations were examined for cytotoxic activity against uninfected MT2 cells. Aliquots of a solution of the compounds in dimethyl sulfoxide were added to the MT2 cells (2×10^5 cells/ml) in RPMI medium containing 10% fetal bovine serum to provide defined final concentrations of test compound. The cells and test compounds were cultured for 4 days at 37° C., in the presence of 5% CO2 and then cytotoxic effect of the compounds was analyzed by using the standard XTT assay. The CC50 calculated from the results were 10±0.5 μM for BBNH and more than 1000 μM for Fe(III)-BBNH.

[5] = molecular target: HIV-1 RT (Human immunodeficiency virus type 1 BH10, UniProt P03366); conditions: RDDP, RNase H, and DDDP; Borkow et al. 1997; cited from earlier work
[6] = system: cells; assay: Cytotoxicity (general statement); format: cell-based
[7] = system: HIV-1 replication in cells; conditions: Borkow et al. 1997; cited from earlier work
[8] = molecular target: T3, HIV-1 reverse transcriptase (p51/p66 RT), RDDP activity (Human immunodeficiency virus type 1 group M subtype B, UniProt P03366); assay: Inhibition of RNA dependent DNA polymerase activity of RT (RT RDDP); format: biochemical
T3 construct: 10 ng of p51/p66 heterodimeric RT per assay were used
Procedure: as §1

[9] = system: HIV-1 infection of MT2 cells; assay: Inhibition of HIV-1 infection of uninfected MT2 cells; format: cell-based; conditions: Human immunodeficiency virus 1, compound in DMSO, 30 min before HIV
Procedure: BBNH and Fe(III)-BBNH complex at various concentrations were examined for the ability to inhibit HIV-1 infection of uninfected MT2 cells. Aliquots of a solution of the compounds in dimethyl sulfoxide were added to uninfected MT2 cells (2×10^5 cells/ml) in RPMI medium containing 10% fetal bovine serum to provide defined final concentrations of test compound. The cells and test compounds were incubated for 30 minutes at 37° C., then inoculated with a suspension of HIV virions. The cells, test compounds and HIV were incubated for 18 h at 37° C., then the cells were collected by centrifugation, washed, and resuspended in RPMI medium containing 10% fetal bovine serum and containing the same concentration of test compound as initially employed. The cells were then cultured at 37° C. (with culture medium changes as required). HIV infection was assessed by microscopic examination of HIV-induced cytopathicity (syncytium) and/or by analysis of HIV p24 antigen levels in the culture supernatants.

Compound: CC(C)(C)c1ccc(C(=O)NN=Cc2c(O)ccc3ccccc23)cc1 [BBNH, N-(4-t-butylbenzoyl)-2-hydroxy-1-naphthaldehyde hydrazone, reference compound]
- IC50 [1]: 12.5 ± 5 µM
- IC50 ([2]; 10 min. preincubation): 3.5 ± 0.8 µM
- IC50 ([2]; No preincubation): > 50 µM
- preincubation needed for maximal inhibition of RT RNase H ([2]; in vitro, preincubation of the enzyme with BBNH): 10 to 15 min
- IC50 [3]: ~5 µM
- preincubation needed for maximal inhibition of IN ([3]; preincubation of the enzyme with BBNH): 10 to 15 min
- CC50 at 96 h [4]: 10 ± 0.5 µM
- inhibition of all three enzymatic activities of HIV-1 RT in vitro [5]: good inhibitor of all three enzymatic activities of HIV-1 RT in vitro
- cytotoxicity [6]: cytotoxic
- inhibition of replication of HIV-1 in infected cells [7]: inhibits replication of HIV-1 in infected cells
- IC50 [8]: 1.9 ± 0.1 µM
- IC50 [9]: 1.5 ± 0.5 µM
